# Assay results taken from patent US20220330549A1, “USE OF N-BENZYLBENZAMIDE-BASED COMPOUND AS HERBICIDE” (Northwest A&F University, priority 2020, published 2022).
# Assays:
# Type in all cases: in vivo
# [1] = test system: Barnyard grass; assay: Herbicidal activity test for indoor pre-emergence soil treatment; design: key: level 1-9; higher = more weed remaining vs blank control; settings: 150 g a.i./ha, visual inspection 21 days after treatment
# Outline: (§1)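 Pre-emergence soil spray per NY/T 1155.3-2006: weed seeds sown in moistened neutral sandy loam (organic content ≤2%), covered with 0.5–2.0 cm soil, then sprayed 24 h later with a water-diluted 10% emulsifiable concentrate at 150 g(a.i.)/ha. Visual rating after 21 days on a 1–9 scale.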
# [2] = test system: Piemarker; assay: as above; design: key: level 1-9; higher = more weed remaining vs blank control; settings: 150 g a.i./ha, visual inspection 21 days after treatment
# Outline: as §1
# [3] = test system: green bristlegrass; assay: as above; design: key: level 1-9; higher = more weed remaining vs blank control; settings: 150 g a.i./ha, visual inspection 21 days after treatment
# Outline: as §1
# [4] = test system: Amaranthus retroflexus; assay: as above; design: key: 1-9 levels; higher = more weed remaining vs blank control; settings: 150 g a.i./ha, visual inspection 21 days after treatment
# Outline: as §1
# [5] = test system: Digitaria sanguinalis; assay: as above; design: key: 1-9 levels; higher = more weed remaining vs blank control; settings: 150 g a.i./ha, visual inspection 21 days after treatment
# Outline: as §1
# [6] = test system: Humulus scandens; assay: as above; settings: 150 g a.i./ha, visual inspection 21 days after treatment
# Outline: as §1
# [7] = test system: Amaranthus retroflexus; assay: Herbicidal activity test for indoor post-emergence spraying on stems and leaves; design: key: grade level by weed remaining vs blank control, e.g. 5 = 10.1-15%; settings: 150 g a.i./ha, visual inspection 21 days after treatment
# Outline: (§2)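 Following national standard NY/T 1155.4-2006, seedlings raised in a greenhouse receive stem-and-leaf spraying after emergence; 21 days on, surviving weed is compared by eye with the blank control area and assigned a graded level (e.g., level 6 = 15.1–25%).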
# [8] = test system: Barnyard grass; assay: as above; design: key: grade level by weed remaining vs blank control, e.g. 5 = 10.1-15%; settings: 150 g a.i./ha, visual inspection 21 days after treatment
# Outline: as §2
# [9] = test system: Digitaria sanguinalis; assay: as above; design: key: grade level by weed remaining vs blank control, e.g. 5 = 10.1-15%; settings: 150 g a.i./ha, visual inspection 21 days after treatment
# Outline: as §2
# [10] = test system: Humulus scandens; assay: as above; design: key: grade level by weed remaining vs blank control, e.g. 5 = 10.1-15%; settings: 150 g a.i./ha, visual inspection 21 days after treatment
# Outline: as §2
# [11] = test system: Piemarker; assay: as above; design: key: grade level by weed remaining vs blank control, e.g. 5 = 10.1-15%; settings: 150 g a.i./ha, visual inspection 21 days after treatment
# Outline: as §2
# [12] = test system: green bristlegrass; assay: as above; design: key: grade level by weed remaining vs blank control, e.g. 5 = 10.1-15%; settings: 150 g a.i./ha, visual inspection 21 days after treatment
# Outline: as §2
# [13] = test system: Broadleaf weed; assay: Post-emergence herbicidal activity test in a paddy field; design: key: level scale; higher level = more weed left vs blank control; settings: 150 g a.i./ha (penoxsulam control 250 g(a.i.)/h)
# Outline: (§3)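 Efficacy was visually estimated 15 and 30 days after spraying, grading weed coverage relative to an untreated neighbouring plot (level 2 = 0 to 2.5%, level 9 = 67.6 to 100%). Treatments were 150 g(a.i.)/ha from 10% emulsifiable concentrates applied at the 4-5 leaf rice stage, four repeats of 50 m^2 each.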
# [14] = test system: Cyperaceae; assay: as above; design: key: level scale; higher level = more weed left vs blank control; settings: 150 g a.i./ha (penoxsulam control 250 g(a.i.)/h)
# Outline: as §3
# [15] = test system: Gramineae; assay: as above; design: key: level scale; higher level = more weed left vs blank control; settings: 150 g a.i./ha (penoxsulam control 250 g(a.i.)/h)
# Outline: as §3
# [16] = test system: Acalypha australis; assay: Field test for weed control in a corn field; settings: 150 g a.i./ha, after treatment
# Outline: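 Herbicidal activity against weeds was assessed in corn plots by the GB/T 17980.42-2000 method. Corn at the 2–5 leaf stage received water sprays of 10% emulsifiable concentrates at 150 g(a.i.)/ha, four repeats per treatment over 20 m^2. A 25% mesotrione oil dispersion was the reference. Damage symptoms and severity were rated on levels 1-9 relative to weeds in the blank control area.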
# [17] = test system: Amaranthus retroflexus; assay: Field test for weed control in a corn field; settings: 150 g a.i./ha, 30 days after treatment
# Outline: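 Post-emergence control of Amaranthus retroflexus was assessed in corn plots using the GB/T 17980.42-2000 method. Emulsifiable concentrates (10%) in water were applied by spraying at the 2- to 5-leaf crop stage on 20 m^2 plots, four replicates each, alongside a mesotrione 25% oil dispersion reference. Herbicidal activity was scored on 1-9 levels by weed amount relative to blank control areas.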
# [18] = test system: Barnyard grass; assay: Field test for weed control in a corn field; settings: 150 g a.i./ha, 30 days after treatment
# Outline: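 Herbicidal activity against barnyard grass was assessed in corn field plots of 20 m^2, with four replicates per treatment. Compounds were applied as water-diluted 10% emulsifiable concentrates at 150 g(a.i.)/ha at the 2-5 leaf corn stage, with 25% mesotrione oil dispersion as the reference agent. Damage was scored on a 1-9 scale against untreated blank plots.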
# [19] = test system: Chenopodium album; assay: Field test for weed control in a corn field; settings: 150 g a.i./ha, after treatment
# Outline: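 Field weed-control testing in corn, run per GB/T 17980.42-2000, scored Chenopodium album on a 1-9 level scale, where each level matches a percentage range of weed remaining relative to the blank control area. Sprays of 10% emulsifiable concentrates in water delivered 150 g(a.i.)/ha at the corn 2-leaf to 5-leaf stage on 20 m^2 plots, four replicates each. Mesotrione 25% oil dispersion served as reference.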
# [20] = test system: Convolvulus arvensis; assay: Field test for weed control in a corn field; settings: 150 g a.i./ha, after treatment
# Outline: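 Post-emergence herbicidal activity on Convolvulus arvensis was scored in a corn field on a 1-9 scale, based on symptoms and damage severity. Each level corresponds to the weed remaining as a percentage of the blank control area. Sprays of 10% emulsifiable concentrate at 150 g(a.i.)/ha went on at the corn 2–5 leaf stage, with four replicates of 20 m^2 per treatment.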
# [21] = test system: Digitaria sanguinalis; assay: Field test for weed control in a corn field; settings: 150 g a.i./ha, after treatment
# Outline: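 Field trial in a corn field following GB/T 17980.42-2000. Test compounds were formulated as 10% emulsifiable concentrates, diluted in water and sprayed post-emergence at 150 g(a.i.)/ha when corn had 2 to 5 leaves, with 4 replicates on 20 m^2 plots. Control of Digitaria sanguinalis was scored on a 1-9 scale based on weed damage relative to the untreated blank area.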
# [22] = test system: Portulaca oleracea; assay: Field test for weed control in a corn field; settings: 150 g a.i./ha, after treatment
# Outline: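 Post-emergence weed control was evaluated in a corn field by the GB/T 17980.42-2000 method. Emulsifiable concentrates (10%) in water were applied as sprays at 150 g(a.i.)/ha at the 2-5 leaf corn stage, in four replicate 20 m^2 plots. A 25% mesotrione oil dispersion served as control agent. Effects were graded 1-9 relative to weed remaining in blank control areas.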
# [23] = test system: Solanum nigrum; assay: Field test for weed control in a corn field; settings: 150 g a.i./ha, 30 days after treatment
# Outline: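 In a corn field trial based on GB/T 17980.42-2000, 10% emulsifiable concentrates diluted in water were sprayed at 150 g(a.i.)/ha at the 2 to 5 leaf stage of corn. Each treatment used 20 m^2 plots and was repeated 4 times, with 25% mesotrione oil dispersion as the reference agent. Solanum nigrum damage was scored on a 1-9 scale against blank control plots.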
# [24] = test system: goosegrass; assay: Field test for weed control in a corn field; settings: 150 g a.i./ha, after treatment
# Outline: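 In this field trial in corn, run per GB/T 17980.42-2000, test agents prepared as 10% emulsifiable concentrates were applied in water as sprays at 150 g(a.i.)/ha at the 2- to 5-leaf corn stage. Each treatment covered 20 m^2 and was repeated 4 times. Goosegrass control was scored 1-9 relative to weed remaining in blank control areas.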
# [25] = test system: green bristlegrass; assay: Field test for weed control in a corn field; settings: 150 g a.i./ha, after treatment
# Outline: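 Herbicidal activity against green bristlegrass was assessed in corn field plots of 20 m^2 per GB/T 17980.42-2000. Test agents, formulated as 10% emulsifiable concentrates, were applied in water at 150 g(a.i.)/ha at the corn 2 leaves to 5 leaves stage, repeated 4 times. A 25% mesotrione oil dispersion served as the control agent, and weed damage was rated on levels 1-9.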
# [26] = test system: nutgrass flatsedge; assay: Field test for weed control in a corn field; settings: 150 g a.i./ha, after treatment
# Outline: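 Herbicidal effect on nutgrass flatsedge was measured in a field planted with corn, using the GB/T 17980.42-2000 method. Emulsifiable concentrates (10%) in water were sprayed at 150 g(a.i.)/ha during the 2-leaf to 5-leaf corn stage, on 20 m^2 plots repeated 4 times. 25% mesotrione oil dispersion was the control agent. Activity was scored from 1 to 9 by weed remaining relative to blank control plots.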
compound,measurement,setting,value
Cc1cccc(C(=O)NCc2ccc(F)cc2)c1 [Compound B02],Herbicidal Activity Barnyard grass,[1],1
same,Herbicidal Activity Piemarker,[2],2 (equivalent to 0 to 2.5% of the weed in the blank control area)
same,Herbicidal Activity Green bristlegrass,[3],1
same,Herbicidal Activity Amaranthus retroflexus,[4],1
same,Herbicidal Activity Digitaria sanguinalis,[5],2 (equivalent to 0 to 2.5% of the weed in the blank control area)
same,Herbicidal Activity Humulus scandens,[6],2 (equivalent to 0 to 2.5% of the weed in the blank control area)
same,Herbicidal Activity Amaranthus retroflexus,[7],1
same,Herbicidal Activity Barnyard grass,[8],1
same,Herbicidal Activity Digitaria sanguinalis,[9],1
same,Herbicidal Activity Humulus scandens,[10],1
same,Herbicidal Activity Piemarker,[11],1
same,Herbicidal Activity Green bristlegrass,[12],1
same,Herbicidal activity 15 days after treatment Broadleaf weed,[13]; 15 days after treatment,1
same,Herbicidal activity 30 days after treatment Broadleaf weed,[13]; 30 days after treatment,1
same,Herbicidal activity 15 days after treatment Cyperaceae,[14]; 15 days after treatment,1
same,Herbicidal activity 30 days after treatment Cyperaceae,[14]; 30 days after treatment,1
same,Herbicidal activity 15 days after treatment Gramineae,[15]; 15 days after treatment,2 (equivalent to 0 to 2.5% of the weed in the blank control area)
same,Herbicidal activity 30 days after treatment Gramineae,[15]; 30 days after treatment,2 (equivalent to 0 to 2.5% of the weed in the blank control area)
same,"Post-emergence weed control effect, Acalypha australis",[16],2 (equivalent to 0 to 2.5% of the weed in the blank control area)
same,"Post-emergence weed control effect, Amaranthus retroflexus",[17],1
same,"Post-emergence weed control effect, Barnyard grass",[18],1
same,"Post-emergence weed control effect, Chenopodium album",[19],1
same,"Post-emergence weed control effect, Convolvulus arvensis",[20],1
same,"Post-emergence weed control effect, Digitaria sanguinalis",[21],2 (equivalent to 0 to 2.5% of the weed in the blank control area)
same,"Post-emergence weed control effect, Portulaca oleracea",[22],1
same,"Post-emergence weed control effect, Solanum nigrum",[23],2 (equivalent to 0 to 2.5% of the weed in the blank control area)
same,"Post-emergence weed control effect, Goose grass",[24],2 (equivalent to 0 to 2.5% of the weed in the blank control area)
same,"Post-emergence weed control effect, Green bristlegrass",[25],1
same,"Post-emergence weed control effect, Nutgrass flatsedge",[26],2 (equivalent to 0 to 2.5% of the weed in the blank control area)
